IC50 cell viability and efficacy data for 18 molecules are collected here from the supplement of paper PMC12137928.

Structures are written as SMILES.

The test system of test [1] is HCT116. The following applies: 72 h. In outline:
(§1)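 HCT116 cells went into 1536-well plates at 250 per well. CellTiter-Glo luminescence was expressed relative to vehicle (0%) and positive control (-100%) and then pattern-corrected. Both IC50 and maximal efficacy were taken from four-parameter Hill fits.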

Test [2] relates to HCT116. As to the kind of experiment: efficacy (maximum % inhibition of viability vs DMSO); higher = more cytotoxic. The following applies: 72 h. In outline: as §1

Regarding `COc1cc(Nc2c(C#N)cnc3cc(OCCCN4CCN(C)CC4)c(OC)cc23)c(Cl)cc1Cl` [Bosutinib], the IC50 cell viability in the test on HCT116 [1] (ICRF193 0 nM) was determined as 29.1 µM; with HCT116 [1] (ICRF193 200 nM) it was 18.3 µM. For the same molecule, the efficacy worked out at 106% in the test on HCT116 [2] (ICRF193 0 nM) and 132% in the test with HCT116 [2] (ICRF193 200 nM).

Take `CN1CCN(CC/C=C2/c3ccccc3Sc3ccc(S(=O)(=O)N(C)C)cc32)CC1` [THIOTHIXENE]: the IC50 cell viability in the test on HCT116 [1] (ICRF193 0 nM) and in the test with HCT116 [1] (ICRF193 200 nM) was 20.6 µM each time. Further, the efficacy is 112% with HCT116 [2] (ICRF193 0 nM) and 126% in the test on HCT116 [2] (ICRF193 200 nM).

In the case of `Cc1nc(Nc2ncc(C(=O)Nc3c(C)cccc3Cl)s2)cc(N2CCN(CCO)CC2)n1` [Dasatinib], the IC50 cell viability with HCT116 [1] (ICRF193 0 nM) stood at 29.1 µM; in the test on HCT116 [1] (ICRF193 200 nM), 23.1 µM. Moreover, the efficacy stood at 74.6% in the test on HCT116 [2] (ICRF193 0 nM) and 105% in the test on HCT116 [2] (ICRF193 200 nM).

Turning to `COc1cc2nc(N3CCN(C(=O)c4ccco4)CC3)nc(N)c2cc1OC` [Prazosin], the IC50 cell viability with HCT116 [1] (ICRF193 0 nM) was more than 45.8 µM; in the test with HCT116 [1] (ICRF193 200 nM), 7.99 µM. The molecule also displayed an efficacy in the test on HCT116 [2] (ICRF193 200 nM) of 42.5%.

On to `Cc1cc(C2CCCCC2)n(O)c(=O)c1` [Ciclopirox], for which the IC50 cell viability stood at 11.6 µM in the test on HCT116 [1] (ICRF193 0 nM) and 13 µM in the test on HCT116 [1] (ICRF193 200 nM). The efficacy with HCT116 [2] (ICRF193 0 nM) turned out to be 107%; in the test with HCT116 [2] (ICRF193 200 nM) it was 98.9%.

Regarding `COc1ccccc1N1CCN(CC(O)COc2cccc3ccccc23)CC1` (stereo not drawn) [Naftopidil], the IC50 cell viability was more than 45.8 µM with HCT116 [1] (ICRF193 0 nM) and 23.1 µM with HCT116 [1] (ICRF193 200 nM). For the same molecule, in the test with HCT116 [2] (ICRF193 200 nM), the efficacy turned out to be 62.6%.

Turning to `Nc1ccn([C@@H]2O[C@H](CO)[C@@H](O)C2(F)F)c(=O)n1` [Gemcitabine], the figures for the IC50 cell viability in the test on HCT116 [1] (ICRF193 0 nM) and with HCT116 [1] (ICRF193 200 nM) were 0.092 µM and 0.0461 µM, respectively. The efficacy in the test with HCT116 [2] (ICRF193 0 nM) worked out at 53.5%; in the test with HCT116 [2] (ICRF193 200 nM) it was 56%.

As to `O=C(N[C@H]1CCS[C@H]2CCC[C@@H](C(=O)O)N2C1=O)[C@@H](S)Cc1ccccc1` [Omapatrilat], the IC50 cell viability in the test on HCT116 [1] (ICRF193 0 nM) is more than 45.8 µM; with HCT116 [1] (ICRF193 200 nM), 6.51 µM. In addition, the efficacy with HCT116 [2] (ICRF193 200 nM) was found to be 86.5%.

For the molecule `C/C(=C(/OCCOc1ccc(Cl)cc1)c1ccc(Cl)cc1Cl)n1ccnc1` [Omoconazole], the IC50 cell viability in the test on HCT116 [1] (ICRF193 0 nM) came out at 18.3 µM; in the test with HCT116 [1] (ICRF193 200 nM), 23.1 µM. For the same molecule, the efficacy in the test on HCT116 [2] (ICRF193 0 nM) was determined as 41.1%; with HCT116 [2] (ICRF193 200 nM), 62.4%.

For `C1CCC(C(CC2CCCCN2)C2CCCCC2)CC1` (stereo not drawn) [Perhexiline], the IC50 cell viability with HCT116 [1] (ICRF193 0 nM) and with HCT116 [1] (ICRF193 200 nM) was 18.3 µM each time. For the same molecule, the efficacy worked out at 90.2% with HCT116 [2] (ICRF193 0 nM) and 100% in the test with HCT116 [2] (ICRF193 200 nM).

Consider `CN(C)/N=N/c1[nH]cnc1C(N)=O` [Dacarbazine], for which the IC50 cell viability with HCT116 [1] (ICRF193 0 nM) came to 7.3 µM; in the test on HCT116 [1] (ICRF193 200 nM), 16.4 µM. Further, the efficacy turned out to be 66.6% with HCT116 [2] (ICRF193 0 nM) and 91.9% with HCT116 [2] (ICRF193 200 nM).

For the molecule `CC[C@H]1OC(=O)C[C@@H](OC(C)=O)[C@H](C)[C@@H](O[C@@H]2O[C@H](C)[C@@H](O[C@H]3C[C@@](C)(O)[C@@H](OC(=O)CC(C)C)[C@H](C)O3)[C@H](N(C)C)[C@H]2O)[C@@H](CC=O)C[C@@H](C)C(=O)/C=C/C(C)=C/[C@@H]1CO[C@@H]1O[C@H](C)[C@@H](O)[C@@H](OC)[C@H]1OC` [Tylvalosin], the IC50 cell viability in the test on HCT116 [1] (ICRF193 0 nM) is more than 45.8 µM; in the test on HCT116 [1] (ICRF193 200 nM), 18.3 µM. For the same molecule, the efficacy in the test on HCT116 [2] (ICRF193 200 nM) stood at 53.7%.

On to `CC[C@@H](C(=O)[C@@H](C)[C@@H](O)[C@H](C)[C@@H]1O[C@@H]([C@@H](CC)C(=O)O)CC[C@@H]1C)[C@H]1O[C@]2(C=C[C@@H](O)[C@]3(CC[C@@](C)([C@H]4CC[C@](O)(CC)[C@H](C)O4)O3)O2)[C@H](C)C[C@@H]1C` [SALINOMYCIN, SODIUM], for which the values for the IC50 cell viability with HCT116 [1] (ICRF193 0 nM) and in the test on HCT116 [1] (ICRF193 200 nM) were 2.31 µM and 1.3 µM, respectively. Besides, the efficacy in the test on HCT116 [2] (ICRF193 0 nM) turned out to be 104%; in the test on HCT116 [2] (ICRF193 200 nM), 100%.

`CC(=O)OC[C@H]1O[C@@H]([S-])[C@H](OC(C)=O)[C@@H](OC(C)=O)[C@@H]1OC(C)=O.CCP(CC)CC.[Au+]` [Auranofin]: the IC50 cell viability with HCT116 [1] (ICRF193 0 nM) and in the test on HCT116 [1] (ICRF193 200 nM) was 2.59 µM throughout. Further, the efficacy in the test on HCT116 [2] (ICRF193 0 nM) was 102%; with HCT116 [2] (ICRF193 200 nM), 96.8%.

Turning to `CC(C)(C)c1ccc(C(=O)CCCN2CCC(OC(c3ccccc3)c3ccccc3)CC2)cc1` [Ebastine], the IC50 cell viability in the test with HCT116 [1] (ICRF193 0 nM) is 29.1 µM; in the test on HCT116 [1] (ICRF193 200 nM), 23.1 µM. Besides, the efficacy was found to be 115% in the test on HCT116 [2] (ICRF193 0 nM) and 112% in the test with HCT116 [2] (ICRF193 200 nM).

`CCOc1ccc2nc3cc(N)ccc3c(N)c2c1` [Ethacridine lactate hydrate]: the IC50 cell viability stood at 18.3 µM in the test on HCT116 [1] (ICRF193 0 nM) and 29.1 µM in the test on HCT116 [1] (ICRF193 200 nM). The values for the efficacy with HCT116 [2] (ICRF193 0 nM) and in the test with HCT116 [2] (ICRF193 200 nM) were 54.4% and 50.6%, respectively.

For `CCCC(=O)O[C@]1(C(=O)CCl)[C@H](C)C[C@@H]2[C@@H]3CCC4=CC(=O)C=C[C@]4(C)[C@]3(F)C(=O)C[C@@]21C` [Clobetasone butyrate], the IC50 cell viability in the test on HCT116 [1] (ICRF193 0 nM) is 20.6 µM; with HCT116 [1] (ICRF193 200 nM), 14.6 µM. Also, the efficacy stood at 50.4% in the test with HCT116 [2] (ICRF193 0 nM) and 40.9% in the test with HCT116 [2] (ICRF193 200 nM).

Regarding `Cc1cc(CC(C)CC(C)(C)C)n(O)c(=O)c1` (stereo not drawn) [Piroctone Olamine], the IC50 cell viability with HCT116 [1] (ICRF193 0 nM) came to 18.3 µM; in the test on HCT116 [1] (ICRF193 200 nM), 29.1 µM. The efficacy with HCT116 [2] (ICRF193 0 nM) came to 81%; in the test on HCT116 [2] (ICRF193 200 nM) it was 87.4%.
